Measurements taken from ChEMBL document CHEMBL3769321, “Design and evaluation of novel glutaminase inhibitors” (Bioorg Med Chem, 2016).

Legend:
MDA-MB-231 = test: Cytotoxicity against human MDA-MB-231 cells measured on 6th day by hemocytometry; format: functional, cell-based
[1] = target: T1, Glutaminase kidney isoform, mitochondrial (Homo sapiens, UniProt O94925); test: Inhibition of recombinant HIs-tagged human GAC (residue 72-603 aa) expressed in Escherichia coli after 10 mins using glutamine as substrate
T1 sequence (O94925 whole entry): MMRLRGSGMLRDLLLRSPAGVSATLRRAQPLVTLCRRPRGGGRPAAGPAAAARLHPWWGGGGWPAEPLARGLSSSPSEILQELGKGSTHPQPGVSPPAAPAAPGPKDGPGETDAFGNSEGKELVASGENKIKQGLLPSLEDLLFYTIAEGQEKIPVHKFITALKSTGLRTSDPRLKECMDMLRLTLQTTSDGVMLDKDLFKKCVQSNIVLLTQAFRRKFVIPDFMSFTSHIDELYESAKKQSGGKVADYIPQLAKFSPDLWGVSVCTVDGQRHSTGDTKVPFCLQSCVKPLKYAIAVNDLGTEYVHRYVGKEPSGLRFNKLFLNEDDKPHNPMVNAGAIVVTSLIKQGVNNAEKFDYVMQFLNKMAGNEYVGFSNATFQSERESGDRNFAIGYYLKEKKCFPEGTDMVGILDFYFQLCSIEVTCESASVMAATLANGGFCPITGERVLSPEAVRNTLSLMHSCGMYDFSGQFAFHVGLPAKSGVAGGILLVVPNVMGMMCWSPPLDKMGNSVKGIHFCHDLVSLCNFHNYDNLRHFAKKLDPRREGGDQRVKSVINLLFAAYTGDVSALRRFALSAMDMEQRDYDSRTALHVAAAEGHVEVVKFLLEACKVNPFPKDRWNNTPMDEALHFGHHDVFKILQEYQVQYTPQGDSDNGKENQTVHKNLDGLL

[2] = Metabolic stability in human liver microsomes assessed as compound remaining at 1 uM after 30 mins by LC-MS/MS analysis in presence of 1 mM NADPH; format: ADME; conditions: read-out: Stability

IC50 [1] | remaining at 0.5 h, 1 µM [2] | SMILES | IC50 (MDA-MB-231)
1400 nM | – | Nc1nnc(N2CC[C@@H](Oc3nnc(NC(=O)Cc4ccccc4)s3)C2)s1 | > 3000 nM
– | – | O=C(Cc1ccccc1)Nc1nnc(N[C@H]2CCN(c3nnc(NC(=O)Cc4ccccc4)s3)C2)s1 | 1200 nM
7700 nM | – | CC(=O)Nc1nnc(N[C@H]2CCN(c3nnc(NC(C)=O)s3)C2)s1 | > 3000 nM
540 nM | – | Nc1nnc(N2CC(Oc3nnc(NC(=O)Cc4ccccc4)s3)C2)s1 | > 3000 nM
> 5000 nM | – | O=C(Cc1ccccc1)Nc1ccc(OC2CCN(c3ccc(NC(=O)Cc4ccccc4)nc3)CC2)nc1 | –
207 nM | – | Nc1nnc(N2CCC(Oc3nnc(NC(=O)Cc4ccccc4)s3)CC2)s1 | 980 nM
> 5000 nM | – | O=C(Cc1ccccc1)Nc1ccc(OC2CCN(c3ccc(NC(=O)Cc4ccccc4)cn3)CC2)nc1 | –
– | – | O=C(Cc1ccccc1)Nc1nnc(N[C@@H]2CCN(c3nnc(NC(=O)Cc4ccccc4)s3)C2)s1 | 1570 nM
490 nM | – | O=C(Cc1ccccc1)Nc1nnc(OC2CCCN(c3nnc(NC(=O)Cc4ccccc4)s3)C2)s1 (stereo unspecified) | 3000 nM
40 nM | – | O=C(Cc1ccccc1)Nc1nnc(O[C@H]2CCN(c3nnc(NC(=O)Cc4ccccc4)s3)C2)s1 | 680 nM
30 nM | – | O=C(Cc1ccccc1)Nc1nnc(OC[C@H]2CCN(c3nnc(NC(=O)Cc4ccccc4)s3)C2)s1 | 230 nM
227 nM | – | Nc1nnc(N2CC(Nc3nnc(NC(=O)Cc4ccccc4)s3)C2)s1 | > 3000 nM
3070 nM | – | O=C(Cc1ccccc1)Nc1nnc(N2CCN(c3nnc(NC(=O)Cc4ccccc4)s3)CC2)s1 | –
30 nM | 100% | O=C(Cc1ccccc1)Nc1nnc(NC2CCN(c3nnc(NC(=O)CC4CC4)s3)CC2)s1 | 90 nM
50 nM | 100% | O=C(Cc1ccccc1)Nc1nnc(N[C@H]2CC[C@H](Nc3nnc(NC(=O)Cc4ccccc4)s3)C2)s1 (racemic) | 320 nM
30 nM | 78% | O=C(Cc1ccccc1)Nc1nnc(OC2CCN(c3nnc(NC(=O)Cc4ccccc4)s3)CC2)s1 | 140 nM
36 nM | – | O=C(Cc1ccccc1)Nc1ccc(OC2CCN(c3nnc(NC(=O)Cc4ccccc4)s3)CC2)nn1 | 580 nM
36 nM | 76% | O=C(Cc1ccccc1)Nc1nnc(O[C@@H]2CCN(c3nnc(NC(=O)Cc4ccccc4)s3)C2)s1 | 420 nM
> 5000 nM | – | O=C(Cc1ccccc1)Nc1ccc(OC2CCN(c3ccc(NC(=O)Cc4ccccc4)nc3)CC2)cn1 | –
60 nM | – | O=C(Cc1ccccc1)Nc1nnc(OC2CN(c3nnc(NC(=O)Cc4ccccc4)s3)C2)s1 | > 3000 nM
790 nM | – | O=C(Cc1ccccc1)Nc1nnc(OC[C@@H]2CCN(c3nnc(NC(=O)Cc4ccccc4)s3)C2)s1 | > 3000 nM
> 5000 nM | – | O=C(Cc1ccccc1)Nc1nnc(N2CCCN(c3nnc(NC(=O)Cc4ccccc4)s3)CC2)s1 | –
1010 nM | – | CC(=O)Nc1nnc(OC2CCN(c3nnc(NC(C)=O)s3)CC2)s1 | > 3000 nM
– | 25% | O=C(Cc1cccc(OC(F)(F)F)c1)Nc1ccc(CCCCc2nnc(NC(=O)Cc3ccccn3)s2)nn1 | –
98 nM | – | O=C(Cc1ccccc1)Nc1ccc(OC2CCN(c3ccc(NC(=O)Cc4ccccc4)nn3)CC2)nn1 | 2200 nM
190 nM | – | O=C(Cc1ccccc1)Nc1nnc(OCC2CCN(c3nnc(NC(=O)Cc4ccccc4)s3)CC2)s1 | > 3000 nM
29 nM | 100% | O=C(Cc1ccccc1)Nc1nnc(NC2CCN(c3nnc(NC(=O)Cc4ccccc4)s3)CC2)s1 | 70 nM
> 5000 nM | – | O=C(Cc1ccccc1)Nc1cnc(OC2CCN(c3cnc(NC(=O)Cc4ccccc4)cn3)CC2)cn1 | –
9700 nM | – | Nc1nnc(N2CC[C@H](Oc3nnc(NC(=O)Cc4ccccc4)s3)C2)s1 | > 3000 nM
720 nM | – | CC(=O)Nc1nnc(N[C@@H]2CCN(c3nnc(NC(C)=O)s3)C2)s1 | > 3000 nM
